From US20030007996A1, “Therapies for the prevention and treatment of diabetes and obesity” (priority 2001, published 2003)
Values belong to the molecule of their own block, whether it stands above or below them.

What was measured:
soleus muscle strips = assay: 3-O-methyl glucose transport (3MGT) in incubated soleus muscle strips (Example 12); format: cell-based, rat; settings: for effect on 3MGT: 10 minute incubation
Experimental: Male Sprague-Dawley rats are used in all the following examples. Soleus muscle strips are incubated as described by Bonen et al (1992), Wilkes and Bonen (2000) and Bonen et al (1994) to determine glucose transport. Basal and insulin-stimulated 3-O-methyl glucose transport (3MGT) is examined in a dose dependent (0-10 nM) manner during a 10 minute incubation period in appropriate buffer (Bonen et al., 1994). Comparison of this dose-response relationship of insulin, and the A1 agonist CPA, and A2 agonist DPMA on 3MGT is conducted. 3MGT rates are linear for up to 20 minutes. The 10 minute period is therefore a convenient time point to acquire sufficient counts in the muscle at a reasonable cost of using radiolabelled 3MGT.
Optimal stimulating concentrations of insulin, CPA, and DPMA are established for 3MGT.

Akt = assay: Signaling protein activation in isolated rodent muscles (Example 14); format: cell-based, rat
Experimental: Experiments with insulin, CPA and DPMA are performed in isolated muscles using optimal stimulating concentrations to determine which signaling proteins are activated. For this purpose, isolated rodent muscles are incubated with either basal or maximal insulin concentrations with and without either CPA or DPMA. Glucose transport is determined by 3MGT, measured over 10 minutes. The muscle samples are analyzed for IRTK, IRS-1 associated P13 kinase, p38 MAP kinase and Akt activities. The critical exposure time to activate signaling proteins is established in pilot work. […] Optimal exposure times required for signaling protein activation by CPA and DPMA are established. […] We establish that blocking P13-kinase with LY29004 blocks downstream activation of Akt by insulin, and by CPA and DPMA.

[1] = tested on: A1 and A2 adenosine receptors; assay: Adenosine receptor-stimulated adenylate cyclase activity (cAMP) in skeletal muscle homogenates (Example 4); format: biochemical, rat
Experimental: The purpose of this study was to investigate the presence of A1 and A2 adenosine receptors (AR) in rat and human skeletal muscle. Adenosine receptor-stimulated adenylate cyclase activity studies were conducted to determine cAMP responses in the presence of AR agonists using rat skeletal muscle homogenates. Subsequently, Western blotting experiments were conducted to identify the A1 and A2 receptor proteins in rodent and human skeletal muscle samples. […] There was little effect of R-PIA (an A1 AR agonist) on cAMP levels in any fiber type. […] A2a expression was highest in the liver compared to muscle and heart homogenates.

lean sedentary males = assay: Hyperinsulinemic euglycemic clamp after caffeine ingestion (Example 1); format: in vivo, human
Experimental: (§1) The methods and materials employed in this invention are common to those skilled in the art. The methods and materials for the hyperinsulinemic euglycemic glucose clamp test are found in Greer et al., 2001. The methods and materials for the oral glucose tolerance test (OGTT) are described in Graham et al., 2001.
Trials were separated by one week. Prior to each clamp session, subjects withdrew from methylxanthine containing products for 48 hours.

young, fit, adult males = assay: Oral glucose tolerance test (OGTT) after caffeine ingestion in lean males (Example 2); format: in vivo, human
Excerpt: as §1
Young, fit, adult males (n=18) underwent two oral glucose tolerance tests (OGTT). […] Following the OGTT all of these parameters increased (p≦0.05) for the duration of the OGTT. […] During the OGTT these decreased to match those of the placebo trial. […] The data support the hypothesis that caffeine ingestion impairs glucose disposal.

healthy male subjects = assay: OGTT after alkaloid caffeine, caffeinated coffee, decaffeinated coffee or placebo (Example 3); format: in vivo, human; settings: two hours of the OGTT; n=10
Experimental: as §1
Venous blood samples were taken at −30, 0 (treatment given), 60 (OGTT administered), 75, 90, 120, 150 and 180 minutes and were analyzed for glucose, insulin, C peptide, glycerol, free fatty acids and lactate. Area under the curve (AUC) were calculated for the two hours of the OGTT. […] This component acts as an adenosine receptor […].

[2] = tested on: obese (BMI>30) nondiabetic males; assay: OGTT after caffeine ingestion in obese nondiabetic males (Example 5); format: in vivo, human; settings: obese males (n=4)
[3] = tested on: obese (BMI=30-38 kg/m2) men; assay: OGTT after caffeine before and after a weight loss program (Example 6); format: in vivo, human
[4] = tested on: young, sedentary, obese males; assay: OGTT after caffeine in obese, resting males (Example 7); format: in vivo, human; settings: p<0.05
[5] = tested on: obese and Type 2 diabetic males; assay: OGTT with and without caffeine in lean, obese and Type 2 diabetic males (Example 8); format: in vivo, human
Excerpt: The results will be compared to the current data base; containing data (28,40) collected in an identical fashion for 30 lean (BMI of less than 25) males age 18-30 years. Lean subjects have BMI of less than 25, the obese are class I (BMI 30-34), abdominal obese (waist circumference>100 cm) and the diabetics have the same anthropometry. The diabetics are volunteers who have been well controlled for a year, with glycosylated hemoglobin levels between 6.5-9.5% for at least three months. They have similar levels of obesity, are not insulin-dependent, and are not on oral hypoglycemic agents, but rather diet-controlled. Their participation is medically approved and they are screened for hypertension and angina. The area under the curve for insulin and C-peptide is greater for the obese and even greater for the diabetic subjects. […] Data also includes plasma catecholamines, methylxanthines, FFA, and glycerol.

young type 1 diabetics = assay: Caffeine followed by high glycemic index cereal in type 1 diabetics (Example 18); format: in vivo, human
Experimental: Young type 1 diabetics (5 females and 1 male) who had been diagnosed for an average of 8.3±5.4 years volunteered to perform two trials in a randomized, double blind study design. Subjects were given either placebo or caffeine-containing (5 mg/kg) capsules and 30 minutes later they self-administered the appropriate amount of insulin for the ingestion of 60 g of carbohydrates in the form of a high glycemic cereal with 125 ml of 1% milk. The amount of self-administered insulin and injection site were the same for both trials. Venous blood glucose was measured prior to capsule ingestion, prior to insulin injection, and immediately following ingestion of the cereal meal (t=0 minutes). Blood glucose was then measured every 15 minutes for the next 2.5 hours.

[6] = tested on: obese type 2 diabetic males; assay: OGTT with and without caffeine in obese type 2 diabetic males (Example 19); format: in vivo, human
[7] = caffeine 5 mg/kg 1 h before 75 g dextrose, p≦0.05
[8] = last 90 minutes of the OGTT, p≦0.05

Structure (SMILES): OC[C@H]1O[C@@H](n2cnc3c(NC4CCCC4)ncnc32)[C@H](O)[C@@H]1O [CPA, N6-cyclopentyladenosine]
effect on 3MGT (soleus muscle strips): increases

Structure (SMILES): COc1cc(OC)cc(C(CNc2ncnc3c2ncn3[C@@H]2O[C@H](CO)[C@@H](O)[C@H]2O)c2ccccc2C)c1 (stereo partly shown) [DPMA, N-[2-(3,5-dimethoxy-phenyl)-2-(2-methylphenyl)ethyl]-adenosine]
effect on 3MGT (soleus muscle strips): increases

Structure (SMILES): O=c1cc(N2CCOCC2)oc2c(-c3ccccc3)cccc12 [LY29004]
effect on CPA- and DPMA-induced increases in 3MGT (soleus muscle strips): inhibited | effect on insulin stimulated 3MGT (soleus muscle strips): inhibited | effect on downstream activation of Akt by insulin, and by CPA and DPMA (Akt): blocks

Structure (SMILES): CCNC(=O)[C@H]1O[C@@H](n2cnc3c(N)ncnc32)[C@H](O)[C@@H]1O [NECA]
effect on cAMP production ([1]; glycolytic samples): no effect | increase in cAMP production ([1]; rat oxidative muscle homogenates): 7.5 fold

effect on cAMP levels ([1]; any fiber type): little effect
Structure (SMILES): C[C@H](Cc1ccccc1)Nc1ncnc2c1ncn2[C@@H]1O[C@H](CO)[C@@H](O)[C@H]1O [R-PIA]

Structure (SMILES): Cn1c(=O)c2c(ncn2C)n(C)c1=O [caffeine]
decrease in carbohydrate storage compared to placebo (lean sedentary males; caffeine 5 mg/kg): 35% | decrease in glucose disposal (lean sedentary males; caffeine 5 mg/kg vs placebo): 24% | glucose disposal (lean sedentary males; caffeine 5 mg/kg, placebo 8.42+/−0.63, n=9): 6.38 ± 0.76 mg/kg/min | serum fatty acids, glycerol and plasma epinephrine (young, fit, adult males; after caffeine ingestion, before OGTT, p≦0.05): increase | serum C peptide area under the curve, greater than placebo (young, fit, adult males; [7]): 37% | serum insulin area under the curve, greater than placebo (young, fit, adult males; [7]): 60% | blood glucose level vs placebo (young, fit, adult males; during OGTT): no differences between trials | serum C peptide concentration vs placebo (young, fit, adult males; [8]): significantly greater | serum insulin concentration vs placebo (young, fit, adult males; [8]): significantly greater | AUC for GLU (young, fit, adult males; lean males (n=18), OGTT): 168 mM/2 h | insulin AUC (young, fit, adult males; lean males (n=18), OGTT, placebo 3274): 5242 uU/ml/2h | AUC for glucose, comparison between treatments (healthy male subjects): higher than both CC (p<0.04) and DC (p<0.01) | AUC for insulin, comparison between treatments (healthy male subjects): higher AUC for insulin (see FIG. 5) than both PL (p<0.002) and DC (p<0.001) | AUC for peptide C, comparison between treatments (healthy male subjects): higher values than both PL (p<0.02) and DC (p<0.001) | AUC for GLU [2]: 167 mM/2 h | insulin AUC ([2]; placebo 6938): 10,968 uU/ml/2 h | increase in insulin during the OGTT compared to placebo ([3]; following the twelve week intervention, p=0.056): greater | blood glucose vs placebo ([3]; prior to the twelve week intervention): no differences | insulin response during the OGTT vs placebo ([3]; prior to the twelve week intervention, caffeine 5 mg/kg, p=0.043): greater | glucose area under the curve during the OGTT ([4]; caffeine 5 mg/kg, n=28, placebo 188.5): 260.1 mM/2h | insulin area under the curve during the OGTT ([4]; caffeine 5 mg/kg, n=28, placebo 7037.9): 9455.8 uIU/ml/2h | glucose level vs placebo ([4]; last 90 minutes of the OGTT): significantly greater | insulin level vs placebo ([4]; last 105 minutes of the OGTT): significantly greater | area under the curves for insulin and C-peptide following caffeine ingestion ([5]; lean subjects): increased | area under the curves for insulin and C-peptide following caffeine ingestion ([5]; obese and diabetic subjects, relative to lean): even greater response | difference in the glucose area under the curve, caffeine vs placebo (young type 1 diabetics; caffeine 5 mg/kg): 72% | glucose area under the curve (young type 1 diabetics; caffeine 5 mg/kg capsules, placebo 347±7.4, p<0.01): 598±7.4 mM/2.5 h | blood glucose ([6]; 180 minutes following ingestion of the OGTT, caffeine 5 mg/kg, placebo 7.4±1.0): 8.4 ± 0.8 mM | blood glucose compared with placebo ([6]; last hour of the OGTT (120 to 180 minutes), p<0.05): significantly elevated
